pIC50: −log10 of the molar value.
System: cGMP PDE5
Assay: In vitro PDE inhibitory activity against cGMP PDE5 (IC50)
Assay type: biochemical
Settings: table of Examples, read-out: IC50 (in vitro activities as inhibitors of cGMP PDE5)
Protocol: In vitro PDE inhibitory activities against cyclic guanosine 3', 5'-monophosphate (cGMP) and cyclic adenosine 3',5'-monophosphate (cAMP) phosphodiesterases were determined by measurement of their IC50 values (the concentration of compound required for 50% inhibition of enzyme activity).
The required PDE enzymes were isolated from a variety of sources, including human corpus cavernosum, human and rabbit platelets, human cardiac ventricle, human skeletal muscle and bovine retina, essentially by the method of W. J. Thompson and M. M. Appleman (Biochem., 1971, 10, 311). In particular, the cGMP-specific PDE (PDE5) and the cGMP-inhibited cAMP PDE (PDE3) were obtained from human corpus cavernosum tissue, human platelets or rabbit platelets; the cGMP-stimulated PDE (PDE2) was obtained from human corpus cavernosum; the calcium/calmodulin (Ca/CAM)-dependent PDE (PDE1) from human cardiac ventricle; the cAMP-specific PDE (PDE4) from human skeletal is muscle; and the photoreceptor PDE (PDE6) from bovine retina.
Assays were performed using a modification of the "batch" method of W. J. Thompson et al. (Biochem., 1979, 18, 5228).

| Compound | pIC50 |
| --- | --- |
| CCCOc1ccc(S(=O)(=O)N2CCN(CCO)CC2)cc1-c1nc2c(C(N)=O)nn(Cc3ccccn3)c2c(=O)[nH]1 [Example 5] | 8.55 |
| CCCOc1ccc(S(=O)(=O)N2CCN(C)CC2)cc1-c1nc2c(C(=O)NC)nn(Cc3cccnc3)c2c(=O)[nH]1 [Example 8] | 8.39 |
| CCOc1ccc(S(=O)(=O)N2CCN(C)CC2)cc1-c1nc2c(C(=O)NC)nn(Cc3ccccc3)c2c(=O)[nH]1 [Example 19, 1-Benzyl-5-[2-ethoxy-5-(4-methylpiperazin-1-ylsulphonyl)]-7-oxo-1,6-dihydro-1H-pyrazolo[4,3-d]pyrimidine-3-N-methylcarboxamide] | 8.47 |
| CCOc1ncc(S(=O)(=O)N2CCN(CC)CC2)cc1-c1nc2c(-c3cccnc3)n(Cc3ncccn3)nc2c(=O)[nH]1 [Example 42] | 8.65 |
| CCN1CCN(S(=O)(=O)c2cnc(OCCOC)c(-c3nc4c(C(N)=O)nn(Cc5ccccn5)c4c(=O)[nH]3)c2)CC1 [Example 33, 5-[5-(4-Ethylpiperazin-1-ylsulphonyl)-2-(2-methoxyethoxy)pyridin-3-yl]-7-oxo-1-(pyridin-2-yl)methyl-1,6-dihydro-1H-pyrazolo[4,3-d]pyrimidine-3-carboxamide] | 8.55 |

— patent US6333330A, “Pyrazolopyrimidinone CGMP PDE5 inhibitors for the treatment of sexual dysfunction” (Pfizer Inc., priority 1998, dated 2001)
